Results taken from ChEMBL document CHEMBL1132313, “32-Indolyl ether derivatives of ascomycin: three-dimensional structures of complexes with FK506-binding protein” (J Med Chem, 1999).

Columns and labels:
[1] = Inhibition of calcineurin phosphatase activity by the compound
[2] = Relative binding affinity of compound for FK-506 binding protein (FKBP)
[3] = test system: T-cell; assay: Compound was evaluated for inhibition of T-cell proliferation induced by PMA-ionomycin.; assay type: functional
[4] = Off-rate of FK-506 binding protein (FKBP) drug complex from their complexes with calcineurin.; assay type: ADME
[5] = Relative binding affinity of compound for FK506 binding protein (FKBP)

Structure (SMILES): CC[C@@H]1/C=C(/C)[C@@H](O)[C@@H](C)C[C@H](OC)[C@H]2O[C@@](O)(C(=O)C(=O)N3CCCC[C@H]3C(=O)O[C@H](/C(C)=C/[C@@H]3CC[C@@H](O)[C@H](OC)C3)[C@H](C)[C@@H](O)CC1=O)[C@H](C)C[C@@H]2OC
- IC50 [1]: 2.5 µM
- IC50 [2]: 0.0007 µM

Structure (SMILES): CC[C@@H]1/C=C(/C)[C@@H](O)[C@H](C)C[C@H](OC)C2O[C@@](O)(C(=O)C(=O)N3CCCC[C@H]3C(=O)O[C@H](/C(C)=C/[C@@H]3CC[C@@H](Oc4ccc5c(ccn5C)c4)[C@H](OC)C3)[C@H](C)[C@@H](O)CC1=O)[C@H](C)C[C@@H]2OC
- IC50 [1]: 0.079 µM
- T-cell proliferation inhibition [3]: 5.1 nM

Structure (SMILES): CC[C@@H]1/C=C(/C)C[C@H](C)C[C@H](OC)C2O[C@@](O)(C(=O)C(=O)N3CCCC[C@H]3C(=O)O[C@H](/C(C)=C/[C@@H]3CC[C@@H](Oc4ccc5c(ccn5CC)c4)[C@H](OC)C3)[C@H](C)[C@@H](O)CC1=O)[C@H](C)C[C@@H]2OC
- IC50 [1]: 0.00821 µM
- T-cell proliferation inhibition [3]: 0.78 nM
- IC50 [2]: 0.027 µM

Structure (SMILES): CC[C@@H]1/C=C(/C)C[C@H](C)C[C@H](OC)C2O[C@@](O)(C(=O)C(=O)N3CCCC[C@H]3C(=O)O[C@H](/C(C)=C/[C@@H]3CC[C@@H](Oc4ccc5c(ccn5CCO)c4)[C@H](OC)C3)[C@H](C)[C@@H](O)CC1=O)[C@H](C)C[C@@H]2OC
- IC50 [1]: 0.0114 µM
- T-cell proliferation inhibition [3]: 0.19 nM
- IC50 [2]: 0.00506 µM
- Off-rate [4]: 254 min

Structure (SMILES): C=CC[C@@H]1C=C(C)CC(C)C[C@H](OC)[C@H]2O[C@@](O)(C(=O)C(=O)N3CCCC[C@H]3C(=O)O[C@H](/C(C)=C/[C@@H]3CC[C@@H](O)[C@H](OC)C3)[C@H](C)[C@@H](O)CC1=O)[C@H](C)C[C@@H]2OC (single isomer, unassigned) [TACROLIMUS ANHYDROUS]
- IC50 [1]: 0.0111 µM
- IC50 [5]: 0.00039 µM
- T-cell proliferation inhibition [3]: 0.3 nM
- Off-rate [4]: 15.1 min
